Laboratory results as given in paper PMC5078989, “Targeted inhibition of the COP9 signalosome for treatment of cancer” (Nature Communications, 2016).

Assays:
Type in all cases: cell-based, human
THP-1 cells = test: Cell viability assay (CellTiter-Glo), THP-1; settings: THP-1, 72 h; cytotoxic
Description: (§1) Cells were maintained in a humidified incubator at 37 °C and 5% CO2. […] All cells were negatively tested for mycoplasma contamination either by the vendor or in house. […] If not stated otherwise, cells were harvested after incubation for 16 h and subjected to SDS-PAGE and western blotting. The RNA interference experiment was performed with CSN5 stealth siRNA (#HSS116986) and stealth negative control siRNA (#12935-400) (Invitrogen), which were transfected at 10 nM into HCT116 cells using […] (Qiagen) according to the manufacturer's protocols. Seventy-two hours after transfection, cells were harvested and subjected to SDS-PAGE and western blotting (see Supplementary Fig. 7 for all western blottings performed). A standardized CellTiter-Glo Assay (Promega #G7570) based on the quantification of ATP was applied according to the manufacturer's protocol to measure the amount of viable cells in culture. In brief, cells were seeded into 384-well plates at optimal density for each cell line. After 4 h, compounds were added at different concentrations in growth medium and incubated for another 72 h in a humidifying chamber at 37 °C and 5% CO2. Eventually, equal amounts of CellTiter-Glo reagent were added directly to the cells, incubated for 15 min and luminescence was recorded using PHERAstar plate reader (BMG LABTECH GmbH).

NCI-H2030 cells = test: Cell viability assay (CellTiter-Glo), NCI-H2030; settings: NCI-H2030, 72 h; cytostatic
Description: as §1

HCT116 cells = test: Immunoblotting of cullins, CRL components and substrates in HCT116 cells
Description: Figure 2 CSN5 inhibition results in the inactivation of a subset of CRLs and the stabilization of their substrates. Effect on CRL components and substrates after treatment of HCT116 cells with either 1 μM MLN4924 or 1 μM CSN5i-3. (a) Immunoblottings for Cul1 and its CRL components Rbx and Skp1; (b) for cullins Cul2, Cul3 and Cul4A; (c) for F-box protein Skp2 and the SCF^Skp2 substrates p21 and p27; (d) for F-box proteins Fbxo22 and Fbxo30; (e) for F-box protein βTrCP and the SCF^βTrCP substrates Wee1 and pIκBα; (f) for the adaptor KEAP1 and the Cul3^KEAP1 substrate Nrf2; (g) for F-box proteins Fbxw7 and Fbxo3.
Cells were maintained in a humidified incubator at 37 °C and 5% CO2. HCT116 cells (ATCC #CCL-247) were grown in McCoy's 5A medium (GIBCO #16600–082) supplemented with 10% fetal bovine serum (FBS), TE-1 (RIKEN BioResource Center, #RCB1894), NCI-H2030 (ATCC #CRL-591), SU-DHL-1 (DMSZ #ACC 356), NOMO-1 (HSRRB #IFO50474) and NCIH196 cells (ATCC, #CRL-5823) in RPMI-1640 medium (GIBCO#61870–010) supplemented with 10% FBS, 10 mM HEPES, 1 mM sodium pyruvate and THP-1 cells (ATCC #TIB-202) with additional 0.05 mM 2-mercaptoethanol. DMS273 cells (ECACC #950628) were cultured in Waymouth's MB 752/1 medium (GIBCO#11220–035) supplemented with 10% FBS. All cells were negatively tested for mycoplasma contamination either by the vendor or in house. For treatment with compounds, sub-confluent cells were either treated with inhibitors at the indicated concentrations or mock treated with an equivalent amount of DMSO (final content 0.1%). If not stated otherwise, cells were harvested after incubation for 16 h and subjected to SDS–PAGE and western blotting. The RNA interference experiment was performed with CSN5 stealth siRNA (#HSS116986) and stealth negative control siRNA (#12935–400) (Invitrogen), which were transfected at 10 nM into HCT116 cells using HiperFect (Qiagen) according to the manufacturer's protocols. Seventy-two hours after transfection, cells were harvested and subjected to SDS–PAGE and western blotting (see Supplementary Fig. 7 for all western blottings performed).
For further analysis, cell lysates were prepared by direct lysis with 2 × Sample buffer (65.8 mM Tris-HCl, pH 6.8, 2.1% SDS, 26.3% glycerol, 0.01% bromophenol blue and 20 mM DTT). Protein lysates from tumour powder were prepared in RIPA buffer (50 mM Tris-HCl pH 8.0, 150 mM NaCl, 1% Triton X-100, 2 mM EDTA, 0.5% sodium deoxycholate and 0.1% SDS) supplemented with 10 mM N-ethylmaleimide, protease inhibitor and phosphatase inhibitor cocktails (Roche Diagnostics). Cells from longer compound incubations were also lysed in RIPA buffer, which allows the protein concentration to be determined by BCA Protein Assay Kit (Pierce). Proteins were separated by SDS–PAGE using 4–20% Tris-Glycine Gels (Invitrogen) and subsequently transferred to polyvinylidene difluoride membranes using a Trans-Blot Turbo System (BioRad). […] Horseradish peroxidase-conjugated secondary antibodies (1:3,000) were purchased from Promega AG and bound antibody was detected by enhanced chemiluminescence (Pierce).

CC(C)n1nc(C(F)F)cc1C(=O)Nc1ccc([C@H]2[C@@H](O)CCCc3cncn32)c(-c2ccccc2)c1 [CSN5i-3, 3-(Difluoromethyl)-N-(6-((5S,6S)-6-hydroxy-6,7,8,9-tetrahydro-5H-imidazo[1,5-a]azepin-5-yl)-[1,1′-biphenyl]-3-yl)-1-isopropyl-1H-pyrazole-5-carboxamide]
AMAX (THP-1 cells): ≤ −95%
AMAX (NCI-H2030 cells): about −50%
degradation of Wee1, pIκB and Nrf2 (HCT116 cells; HCT116, 1 μM): did not affect their degradation
levels of SRMs Skp2, Fbxo22 and Fbxo30 (HCT116 cells; HCT116, 1 μM): degradation
levels of βTrCP, KEAP1, Fbxo3 and Fbxw7 (HCT116 cells; HCT116, 1 μM): remained stable
cullin-1 (Cul1) deneddylation in HCT116 cells (HCT116 cells; qualitative western blot analysis): accumulation of neddylated Cul1
